Each structure is given as a SMILES string.

T1 sequence (O35433 whole entry): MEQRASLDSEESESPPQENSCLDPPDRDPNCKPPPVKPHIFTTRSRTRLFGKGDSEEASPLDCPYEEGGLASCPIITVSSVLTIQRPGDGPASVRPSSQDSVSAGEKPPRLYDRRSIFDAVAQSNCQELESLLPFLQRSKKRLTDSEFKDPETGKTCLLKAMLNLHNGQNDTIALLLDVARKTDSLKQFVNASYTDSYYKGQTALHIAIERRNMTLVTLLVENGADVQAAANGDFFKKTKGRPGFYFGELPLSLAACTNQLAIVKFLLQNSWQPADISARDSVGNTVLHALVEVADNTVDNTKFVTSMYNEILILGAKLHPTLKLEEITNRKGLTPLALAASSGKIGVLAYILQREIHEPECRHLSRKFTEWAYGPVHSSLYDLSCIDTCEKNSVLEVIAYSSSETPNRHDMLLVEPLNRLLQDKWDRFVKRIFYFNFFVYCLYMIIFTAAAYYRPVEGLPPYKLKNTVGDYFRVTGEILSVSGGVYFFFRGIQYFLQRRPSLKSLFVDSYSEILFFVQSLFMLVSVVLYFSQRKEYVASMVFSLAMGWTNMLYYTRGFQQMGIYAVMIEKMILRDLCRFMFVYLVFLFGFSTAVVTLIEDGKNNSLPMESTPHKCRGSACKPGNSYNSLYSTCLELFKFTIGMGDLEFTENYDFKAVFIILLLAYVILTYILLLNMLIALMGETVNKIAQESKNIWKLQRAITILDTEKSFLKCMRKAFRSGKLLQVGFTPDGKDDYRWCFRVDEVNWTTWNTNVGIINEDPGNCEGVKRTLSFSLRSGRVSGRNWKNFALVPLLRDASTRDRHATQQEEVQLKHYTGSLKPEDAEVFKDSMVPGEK

One assay has as its target T1, vanilloid receptor (Rattus norvegicus, UniProt O35433).
T1 construct: DRG nerve cells from the primary culture of 2 days were equilibrated; endogenous in cells; host or cells: primary culture of dorsal root ganglion neurons from neonatal SD rats
In words: 45Ca influx test (antagonist calcium uptake test) in rat DRG neurons stimulated with capsaicin. It counts as cell-based. The note with it: DRG neuron; @0.3 μM; neonatal SD rat DRG neurons; capsaicin 0.5 μM; read-out: Antagonist Calcium Uptake Test, percent inhibition of capsaicin response. The gist of the method: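 Neonatal SD rat DRG neurons, cultured 2 days with NGF 200 ng/ml, exposed to test compound plus 0.5 μM capsaicin and 45Ca (10 μCi/ml) in HEPES-buffered Ca/Mg-free HBSS, pH 7.4, 10 min at room temperature. Influx counted by scintillation; activity as percent inhibition of the 0.5 μM capsaicin maximal response.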
The inhibition is the drop in the measured response relative to a control, in per cent. Consider `C=Cc1cc(CNC(=O)c2ccc(-c3cccc(C(F)(F)F)c3)o2)cc(F)c1NS(C)(=O)=O` [Example 105, 5-(3-Trifluoromethyl-phenyl)-furan-2-carboxylic acid 3-fluoro-4-methanesulfonylamino-5-vinyl-benzylamide], for which the inhibition at 0.3 µM was 96%.

The same assay, now with this note: DRG neuron; @1 μM; neonatal SD rat DRG neurons; capsaicin 0.5 μM; read-out: Antagonist Calcium Uptake Test, percent inhibition of capsaicin response.
Consider `C#Cc1cc(CNC(=O)c2ccc(-c3cccc(C(F)(F)F)c3)o2)cc(F)c1NS(C)(=O)=O` [Example 104, 5-(3-Trifluoromethyl-phenyl)-furan-2-carboxylic acid 3-ethynyl-5-fluoro-4-methanesulfonylamino-benzylamide], for which the inhibition at 1 µM is 100%.

Staying with this assay, now noted: DRG neuron; @10 μM; neonatal SD rat DRG neurons; capsaicin 0.5 μM; read-out: Antagonist Calcium Uptake Test, percent inhibition of capsaicin response.
As to `CC(C)c1cccc(Oc2ccc(C(=O)N[C@H](C)c3cc(F)c(NS(C)(=O)=O)c(F)c3)s2)c1` [Example 21, 5-(3-Isopropyl-phenoxy)-thiophene-2-carboxylic acid [1-(3,5-difluoro-4-methanesulfonylamino-phenyl)-ethyl]-amide], the inhibition at 10 µM was 56%.

Still in this assay, the particulars now being: neonatal SD rat DRG neurons; capsaicin 0.5 μM; 45Ca.
For orientation: IC50 means the concentration at which inhibition is half-maximal. `C[C@@H](NC(=O)c1csc(-c2cc(C3CC3)cc(C3CC3)c2)n1)c1cc(F)c(NS(C)(=O)=O)c(F)c1` (stereo in doubt) [Example 107, 2-(3,5-Dicyclopropyl-phenyl)-thiazole-4-carboxylic acid [1-(3,5-difluoro-4-methanesulfonylamino-phenyl)-ethyl]-amide]: the IC50 came to 3 µM.
On the same count and under the same terms, the value for `Cc1cccc(-c2nc(C(=O)N[C@H](C)c3cc(F)c(NS(C)(=O)=O)c(F)c3)co2)c1C` [Example 90, 2-(2,3-Dimethyl-phenyl)-oxazole-4-carboxylic acid [1-(3,5-difluoro-4-methanesulfonylamino-phenyl)-ethyl]-amide] was 0.91 µM; that for `C[C@@H](NC(=O)c1coc(Oc2cccc3c2CCC3C(F)(F)F)n1)c1cc(F)c(NS(C)(=O)=O)c(F)c1` (stereo in doubt) [Example 57, 2-(1-Trifluoromethyl-indan-4-yloxy)-oxazole-4-carboxylic acid [1-(3,5-difluoro-4-methanesulfonylamino-phenyl)-ethyl]-amide] was 0.33 µM.
`C[C@@H](NC(=O)c1coc(Oc2cc(C(F)(F)F)ccc2Cl)n1)c1cc(F)c(NS(C)(=O)=O)c(F)c1` [Example 53, 2-(2-Chloro-5-trifluoromethyl-phenoxy)-oxazole-4-carboxylic acid [1-(3,5-difluoro-4-methanesulfonylamino-phenyl)-ethyl]-amide]: the IC50 was 0.72 µM.
On to `C[C@@H](NC(=O)c1coc(-c2ccc(Cl)c(Cl)c2)n1)c1cc(F)c(NS(C)(=O)=O)c(F)c1` [Example 86, 2-(3,4-Dichloro-phenyl)-oxazole-4-carboxylic acid [1-(3,5-difluoro-4-methanesulfonylamino-phenyl)-ethyl]-amide], for which the 50% inhibitory concentration (IC50) is 1 µM.
On the same count and under the same terms, as for `C#Cc1cccc(Oc2nc(C(=O)N[C@H](C)c3cc(F)c(NS(C)(=O)=O)c(F)c3)co2)c1` [Example 27, 2-(3-Ethynyl-phenoxy)-oxazole-4-carboxylic acid [1-(3,5-difluoro-4-methanesulfonylamino-phenyl)-ethyl]-amide], the figure is 1.6 µM.
As to `CS(=O)(=O)Nc1ccc(CNC(=O)c2cnc(-c3ccc(C(F)(F)F)cc3)s2)cc1F` [Example 122, 2-(4-Trifluoromethyl-phenyl)-thiazole-5-carboxylic acid 3-fluoro-4-methanesulfonylamino-benzylamide], the half-maximal inhibitory concentration (IC50) was 8.8 µM.
With `COc1cccc(-c2nc(C(=O)N[C@H](C)c3cc(F)c(NS(C)(=O)=O)c(F)c3)co2)c1` (stereo in doubt) [Example 68, 2-(3-Methoxy-phenyl)-oxazole-4-carboxylic acid [1-(3,5-difluoro-4-methanesulfonylamino-phenyl)-ethyl]-amide], the 50% inhibitory concentration (IC50) amounted to 1.7 µM.
In the case of `C=C1CCCc2c(Oc3nc(C(=O)N[C@H](C)c4cc(F)c(NS(C)(=O)=O)c(F)c4)co3)cccc21` [Example 37, 2-(5-Methylene-5,6,7,8-tetrahydro-naphthalen-1-yloxy)-oxazole-4-carboxylic acid [1-(3,5-difluoro-4-methanesulfonylamino-phenyl)-ethyl]-amide], the IC50 came to 0.41 µM.
With `C[C@@H](NC(=O)c1coc(-c2cccc3ccccc23)n1)c1cc(F)c(NS(C)(=O)=O)c(F)c1` [Example 88, 2-Naphthalen-1-yl-oxazole-4-carboxylic acid [1-(3,5-difluoro-4-methanesulfonylamino-phenyl)-ethyl]-amide], the IC50 was found to be 0.72 µM.
Same read-out and setting: the value for `C[C@@H](NC(=O)c1coc(Oc2cccc([N+](=O)[O-])c2)n1)c1cc(F)c(NS(C)(=O)=O)c(F)c1` [Example 18, 2-(3-Nitro-phenoxy)-oxazole-4-carboxylic acid [1-(3,5-difluoro-4-methanesulfonylamino-phenyl)-ethyl]-amide] was 2.9 µM.
In the case of `C[C@@H](NC(=O)c1cnc(-c2cc(C(F)(F)F)cc(C(F)(F)F)c2)s1)c1cc(F)c(NS(C)(=O)=O)c(F)c1` [Example 126, 2-(3,5-Bis-trifluoromethyl-phenyl)-thiazole-5-carboxylic acid [1-(3,5-difluoro-4-methanesulfonylamino-phenyl)-ethyl]-amide], the IC50 worked out at 0.49 µM.
On to `C[C@@H](NC(=O)c1coc(N2CCCC3CCCCC32)n1)c1cc(F)c(NS(C)(=O)=O)c(F)c1` (stereo partly drawn) [Example 19, 2-(Octahydro-quinolin-1-yl)-oxazole-4-carboxylic acid [1-(3,5-difluoro-4-methanesulfonylamino-phenyl)-ethyl]-amide], for which the IC50 amounted to 0.61 µM.
On the same count and under the same terms, as for `CC(C)c1ccc(I)c(Oc2nc(C(=O)N[C@H](C)c3cc(F)c(NS(C)(=O)=O)c(F)c3)co2)c1` [Example 52, 2-(2-Iodo-5-isopropyl-phenoxy)-oxazole-4-carboxylic acid [1-(3,5-difluoro-4-methanesulfonylamino-phenyl)-ethyl]-amide], the figure is 1.8 µM.
Still for that read-out and setting: the value for `C[C@@H](NC(=O)c1coc(Oc2ccc3ncccc3c2)n1)c1cc(F)c(NS(C)(=O)=O)c(F)c1` [Example 23, 2-(Quinolin-6-yloxy)-oxazole-4-carboxylic acid [1-(3,5-difluoro-4-methanesulfonylamino-phenyl)-ethyl]-amide] was 11.9 µM; that for `CC(C)c1cccc(-c2ccc(C(=O)N[C@H](C)c3cc(F)c(NS(C)(=O)=O)c(F)c3)s2)c1` [Example 72, 5-(3-Isopropyl-phenyl)-thiophene-2-carboxylic acid [1-(3,5-difluoro-4-methanesulfonylamino-phenyl)-ethyl]-amide] was 1.4 µM.
Same read-out and setting: the value for `CSc1cccc(-c2nc(C(=O)N[C@H](C)c3cc(F)c(NS(C)(=O)=O)c(F)c3)co2)c1` [Example 98, 2-(3-Methylsulfanyl-phenyl)-oxazole-4-carboxylic acid [1-(3,5-difluoro-4-methanesulfonylamino-phenyl)-ethyl]-amide] was 1.7 µM; that for `C[C@@H](NC(=O)c1coc(Oc2cccc(Cl)c2)n1)c1cc(F)c(NS(C)(=O)=O)c(F)c1` [Example 16, 2-(3-Chloro-phenoxy)-oxazole-4-carboxylic acid [1-(3,5-difluoro-4-methanesulfonylamino-phenyl)-ethyl]-amide] was 0.77 µM.
On to `CS(=O)(=O)Nc1c(F)cc(CNC(=O)c2ccc(-c3cccc(C(F)(F)F)c3)o2)cc1C#N` [Example 121, 5-(3-Trifluoromethyl-phenyl)-furan-2-carboxylic acid 3-cyano-5-fluoro-4-methanesulfonylamino-benzylamide], for which the IC50 came out at 0.33 µM.
Still for that read-out and setting: the value for `CCCc1ccc(C(F)(F)F)cc1Oc1nc(C(=O)N[C@H](C)c2cc(F)c(NS(C)(=O)=O)c(F)c2)co1` [Example 41, 2-(2-Propyl-5-trifluoromethyl-phenoxy)-oxazole-4-carboxylic acid [1-(3,5-difluoro-4-methanesulfonylamino-phenyl)-ethyl]-amide] was 0.19 µM; that for `C[C@@H](NC(=O)c1coc(-c2cccc(N(C)C)c2)n1)c1cc(F)c(NS(C)(=O)=O)c(F)c1` [Example 81, 2-(3-Dimethylamino-phenyl)-oxazole-4-carboxylic acid [1-(3,5-difluoro-4-methanesulfonylamino-phenyl)-ethyl]-amide] was 1 µM; that for `CS(=O)(=O)Nc1c(F)cc(CNC(=O)c2ccc(-c3cccc(C(F)(F)F)c3)o2)cc1F` [Example 110, 5-(3-Trifluoromethyl-phenyl)-furan-2-carboxylic acid 3,5-difluoro-4-methanesulfonylamino-benzylamide] was 0.62 µM.
Regarding `CCOc1cccc(-c2ccc(C(=O)NCc3cc(F)c(NS(C)(=O)=O)c(F)c3)s2)c1` [Example 64, 5-(3-Ethoxy-phenyl)-thiophene-2-carboxylic acid 3,5-difluoro-4-methanesulfonylamino-benzylamide], the concentration for half-maximal inhibition (IC50) is 4.1 µM.
Turning to `CC(C)c1ccc(Oc2nc(C(=O)N[C@H](C)c3cc(F)c(NS(C)(=O)=O)c(F)c3)co2)cc1` [Example 5, 2-(4-Isopropyl-phenoxy)-oxazole-4-carboxylic acid [1-(3,5-difluoro-4-methanesulfonylamino-phenyl)-ethyl]-amide], the IC50 turned out to be 3.6 µM.
